The results in this text go back to patent publication US11548870B2, “Compounds useful as inhibitors of helios protein” (Bristol-Myers Squibb Company, priority 2019, dated 2023).

Structures are written as SMILES. Like-named read-outs stand apart in the source and are kept apart here.

One assay has as its target T1, Helios (Homo sapiens, UniProt Q96SW2+Q9UKS7).
T1 construct: fluorescently labelled antibodies against Helios and Ikaros; endogenous in cells; host or cells: Jurkat cells
Nature of the assay: Helios Cellular Degradation Assay (flow cytometry, Helios-PE antibody staining, 72 h). Type of assay: cell-based. Particulars: for Dmax: Jurkat, read-out: Helios Dmax. A digest of the protocol:
(§1)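 Jurkat cells (80,000/well, RPMI+10% FBS) were exposed to compound for 72 h at 37 °C, then fixed, permeabilized and co-stained for 1 h with Ikaros-Alexa488 and Helios-PE antibodies. Intracellular protein levels were read by flow cytometry.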
On the technique in general: Flow cytometry measures light scatter and fluorescence of single cells or particles in a stream.

A further assay deals with T2, Ikaros (Homo sapiens, UniProt Q13422).
T2 construct: fluorescently labelled antibodies against Helios and Ikaros; endogenous in cells; host or cells: Jurkat cells
T2 sequence (Q96SW2 whole entry partner): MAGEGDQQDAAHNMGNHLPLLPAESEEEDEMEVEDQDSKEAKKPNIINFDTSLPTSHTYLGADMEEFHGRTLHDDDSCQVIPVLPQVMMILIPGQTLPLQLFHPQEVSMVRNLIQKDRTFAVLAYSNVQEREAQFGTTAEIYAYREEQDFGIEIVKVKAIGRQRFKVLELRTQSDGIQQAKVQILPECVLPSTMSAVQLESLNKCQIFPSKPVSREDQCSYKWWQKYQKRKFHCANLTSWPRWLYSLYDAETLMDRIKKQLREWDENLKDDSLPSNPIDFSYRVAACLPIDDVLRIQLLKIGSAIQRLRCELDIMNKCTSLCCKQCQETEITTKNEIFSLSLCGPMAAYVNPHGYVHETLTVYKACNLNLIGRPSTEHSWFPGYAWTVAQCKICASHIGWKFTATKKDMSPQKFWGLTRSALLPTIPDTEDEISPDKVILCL
T2 sequence (Q16531 whole entry partner): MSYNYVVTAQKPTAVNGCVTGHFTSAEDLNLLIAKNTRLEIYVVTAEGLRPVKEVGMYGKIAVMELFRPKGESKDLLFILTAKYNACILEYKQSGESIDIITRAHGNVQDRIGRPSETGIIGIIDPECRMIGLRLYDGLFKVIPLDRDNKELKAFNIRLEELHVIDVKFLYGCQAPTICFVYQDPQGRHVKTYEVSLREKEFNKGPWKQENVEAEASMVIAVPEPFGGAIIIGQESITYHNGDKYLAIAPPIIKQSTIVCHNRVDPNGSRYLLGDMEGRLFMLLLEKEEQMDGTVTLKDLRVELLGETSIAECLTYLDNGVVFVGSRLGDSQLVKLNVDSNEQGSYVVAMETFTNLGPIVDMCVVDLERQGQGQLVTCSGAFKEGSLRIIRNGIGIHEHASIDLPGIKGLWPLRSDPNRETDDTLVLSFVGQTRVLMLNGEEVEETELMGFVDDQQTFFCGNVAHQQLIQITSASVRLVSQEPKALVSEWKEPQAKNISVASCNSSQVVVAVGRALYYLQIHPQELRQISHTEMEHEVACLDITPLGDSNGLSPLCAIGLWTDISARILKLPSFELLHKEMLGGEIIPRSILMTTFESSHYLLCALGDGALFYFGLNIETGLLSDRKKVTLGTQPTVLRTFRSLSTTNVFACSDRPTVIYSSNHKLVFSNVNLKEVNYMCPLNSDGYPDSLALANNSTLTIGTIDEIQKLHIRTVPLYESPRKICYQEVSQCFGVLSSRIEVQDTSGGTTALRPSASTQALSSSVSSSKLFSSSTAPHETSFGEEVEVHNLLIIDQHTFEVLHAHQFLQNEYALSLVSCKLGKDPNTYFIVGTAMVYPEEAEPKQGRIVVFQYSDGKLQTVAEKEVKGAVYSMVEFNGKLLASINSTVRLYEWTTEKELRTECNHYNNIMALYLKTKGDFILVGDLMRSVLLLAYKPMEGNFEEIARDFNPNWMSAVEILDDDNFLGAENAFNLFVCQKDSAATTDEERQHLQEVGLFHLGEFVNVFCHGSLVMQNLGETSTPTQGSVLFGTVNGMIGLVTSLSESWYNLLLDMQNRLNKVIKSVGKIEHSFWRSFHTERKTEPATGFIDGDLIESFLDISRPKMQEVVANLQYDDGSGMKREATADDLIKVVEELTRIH
T2 sequence (Q13422 whole entry): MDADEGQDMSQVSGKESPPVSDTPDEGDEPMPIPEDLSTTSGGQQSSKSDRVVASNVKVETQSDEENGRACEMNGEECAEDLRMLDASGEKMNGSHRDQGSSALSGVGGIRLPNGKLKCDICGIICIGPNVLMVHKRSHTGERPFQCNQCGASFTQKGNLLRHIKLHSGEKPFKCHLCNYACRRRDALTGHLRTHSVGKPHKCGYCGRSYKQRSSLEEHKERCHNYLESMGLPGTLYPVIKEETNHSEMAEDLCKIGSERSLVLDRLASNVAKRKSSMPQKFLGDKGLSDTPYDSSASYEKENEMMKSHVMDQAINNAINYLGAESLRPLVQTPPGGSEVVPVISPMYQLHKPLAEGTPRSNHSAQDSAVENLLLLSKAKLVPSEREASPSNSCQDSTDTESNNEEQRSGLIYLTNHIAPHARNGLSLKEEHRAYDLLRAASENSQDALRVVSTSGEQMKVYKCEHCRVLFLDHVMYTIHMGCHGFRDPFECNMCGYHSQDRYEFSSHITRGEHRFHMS
As to the kind of experiment: Helios Cellular Degradation Assay, Ikaros readout (flow cytometry, Ikaros-Alexa488 antibody staining, 72 h). Type of assay: cell-based. Particulars: for Dmax: Jurkat, read-out: Ikaros Dmax. A digest of the protocol: as §1

[1] abbreviates: Jurkat cells, 72 h incubation, flow cytometry.

T1 sequence (Q9UKS7 whole entry): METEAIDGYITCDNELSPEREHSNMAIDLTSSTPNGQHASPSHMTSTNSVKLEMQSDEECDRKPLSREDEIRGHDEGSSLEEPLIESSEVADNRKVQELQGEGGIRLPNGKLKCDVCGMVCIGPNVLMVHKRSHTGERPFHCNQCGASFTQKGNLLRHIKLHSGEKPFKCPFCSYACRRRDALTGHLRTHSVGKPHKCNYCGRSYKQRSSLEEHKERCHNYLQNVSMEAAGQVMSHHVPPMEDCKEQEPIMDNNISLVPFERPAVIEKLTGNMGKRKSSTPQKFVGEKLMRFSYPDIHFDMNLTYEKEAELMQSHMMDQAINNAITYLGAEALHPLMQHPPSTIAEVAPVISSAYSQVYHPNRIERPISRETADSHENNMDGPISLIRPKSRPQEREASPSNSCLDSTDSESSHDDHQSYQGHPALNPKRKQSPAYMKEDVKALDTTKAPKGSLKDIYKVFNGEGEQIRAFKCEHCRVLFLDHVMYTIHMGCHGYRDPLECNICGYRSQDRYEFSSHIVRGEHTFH
T1 sequence (Q96SW2 whole entry): as the sequence (Q96SW2 whole entry partner) above
T1 sequence (Q16531 whole entry partner): as the sequence (Q16531 whole entry partner) above

As to `CC1CCCN1Cc1ccnc(-c2ccc3c(c2)CN(C2CCC(=O)NC2=O)C3=O)c1` (stereo not drawn) [Example 20, 3-(5-(4-((2-methylpyrrolidin-1-yl)methyl)pyridin-2-yl)-1-oxoisoindolin-2-yl)piperidine-2,6-dione], on Helios (setting [1]), half-maximal degradation (DC50) was put at 0.06 µM and the maximal degradation (Dmax) – broadly, the greatest extent of degradation seen – turned out to be 80%. In addition, on Ikaros (setting [1]), the DC50 – broadly, the concentration giving 50% degradation – was > 10 µM and the greatest degradation seen (Dmax) was determined as 11%.
The corresponding values for `CN(CCC(F)(F)F)Cc1ccnc(-c2ccc3c(c2)CN(C2CCC(=O)NC2=O)C3=O)c1` (stereo not drawn) [Example 184, 3-(5-(4-((methyl(3,3,3-trifluoropropyl)amino)methyl)pyridin-2-yl)-1-oxoisoindolin-2-yl)piperidine-2,6-dione] are 6.05 µM, 54%, > 10 µM and 14%.
As to `O=C1CCC(N2Cc3cc(-c4cc(CN5CC(c6ccccc6)C5)c(Cl)cn4)ccc3C2=O)C(=O)N1` (stereo not drawn) [Example 186, 3-(5-(5-chloro-4-((3-phenylazetidin-1-yl)methyl)pyridin-2-yl)-1-oxoisoindolin-2-yl)piperidine-2,6-dione], at Helios (setting [1]), it took 0.23 µM to reach half-maximal degradation (DC50) and the Dmax was 62%. Also, at Ikaros (setting [1]), the DC50 is > 10 µM and the maximal degradation (Dmax) is 8%.
On to `O=C1CCC(N2Cc3cc(-c4cc(CN5CCCC5)ccn4)ccc3C2=O)C(=O)N1` (stereo not drawn) [Example 8, 3-(1-oxo-5-(4-(pyrrolidin-1-ylmethyl)pyridin-2-yl)isoindolin-2-yl)piperidine-2,6-dione], for which, on Helios (setting [1]), the 50% degradation concentration (DC50) worked out at 0.026 µM and the Dmax was 85%. Besides, at Ikaros (setting [1]), the DC50 is > 10 µM and the maximal degradation (Dmax) was 18%.
The corresponding values for `CNCc1ccnc(-c2ccc3c(c2)CN(C2CCC(=O)NC2=O)C3=O)c1` (stereo not drawn) [Example 145, 3-(5-{4-[(Methylamino)methyl]pyridin-2-yl}-1-oxo-2,3-dihydro-1H-isoindol-2-yl) piperidine-2,6-dione] are 0.067 µM, 93%, > 10 µM and 11%.
The corresponding values for `CN(C)[C@H]1CCN(Cc2ccnc(-c3ccc4c(c3)CN(C3CCC(=O)NC3=O)C4=O)c2)C1` (stereo partly drawn) [Example 33, 3-(5-(4-(((S)-3-(dimethylamino)pyrrolidin-1-yl)methyl)pyridin-2-yl)-1-oxoisoindolin-2-yl)piperidine-2,6-dione] are > 10 µM, 50%, > 10 µM and 2%.
The corresponding values for `CN(Cc1ccnc(-c2ccc3c(c2)CN(C2CCC(=O)NC2=O)C3=O)c1)Cc1cnc2ccccc2n1` (stereo not drawn) [Example 183, 3-(5-(4-((methyl (quinoxalin-2-ylmethyl)amino)methyl)pyridin-2-yl)-1-oxoisoindolin-2-yl)piperidine-2,6-dione] are 0.167 µM, 76%, > 10 µM and 10%.
On to `O=C1CCC(N2Cc3cc(-c4cc(CN5CCN(c6cnccn6)CC5)ccn4)ccc3C2=O)C(=O)N1` (stereo not drawn) [Example 26, 3-(1-oxo-5-(4-((4-(pyrazin-2-yl)piperazin-1-yl)methyl)pyridin-2-yl)isoindolin-2-yl)piperidine-2,6-dione], for which, at Helios (setting [1]), the 50% degradation concentration (DC50) is > 10 µM and the Dmax amounted to 6%. Besides, at Ikaros (setting [1]), the DC50 is > 10 µM and the Dmax amounted to 15%.
In the case of `O=C1CCC(N2Cc3cc(-c4cc(CN5CCN(C(=O)C6CCCO6)CC5)ccn4)ccc3C2=O)C(=O)N1` (stereo not drawn) [Example 32, 3-(1-oxo-5-(4-((4-(tetrahydrofuran-2-carbonyl)piperazin-1-yl)methyl)pyridin-2-yl)isoindolin-2-yl) piperidine-2,6-dione], on Helios (setting [1]), the half-maximal degradation concentration (DC50) is > 10 µM and the Dmax worked out at 35%. Further, on Ikaros (setting [1]), the DC50 was > 10 µM and the maximal degradation (Dmax) was found to be 23%.
For the compound `CCCN(C)Cc1ccnc(-c2ccc3c(c2)CN(C2CCC(=O)NC2=O)C3=O)c1` (stereo not drawn) [Example 3, 3-(5-(4-((methyl(propyl)amino)methyl)pyridin-2-yl)-1-oxoisoindolin-2-yl)piperidine-2,6-dione], the results for the DC50 at Helios (setting [1]) and at Ikaros (setting [1]) were 0.038 µM and > 10 µM, respectively. For the same compound, the Dmax was found to be 87% on Helios (setting [1]) and 3% at Ikaros (setting [1]).
On to `O=C1CCC(N2Cc3cc(-c4cc(CN5CCN(Cc6ccccc6)CC5)ccn4)ccc3C2=O)C(=O)N1` (stereo not drawn) [Example 36], for which, at Helios (setting [1]), the 50% degradation concentration (DC50) is > 10 µM and the “Helios Dmax” value was 11%. At Ikaros (setting [1]), the DC50 is > 10 µM and the “Ikaros Dmax” value was determined as 14%.
As for `O=C1CCC(N2Cc3cc(-c4cc(CNC5(C6CC6)CCC5)ccn4)ccc3C2=O)C(=O)N1` (stereo not drawn) [Example 77, 3-(5-(4-(((1-cyclopropylcyclobutyl)amino)methyl)pyridin-2-yl)-1-oxoisoindolin-2-yl)piperidine-2,6-dione], at Helios (setting [1]), it took 0.012 µM to reach half-maximal degradation (DC50) and the Dmax came to 85%. On Ikaros (setting [1]), the DC50 was > 10 µM and the Dmax came to 12%.
The corresponding values for `C[C@@H]1CCCCN1Cc1ccnc(-c2ccc3c(c2)CN(C2CCC(=O)NC2=O)C3=O)c1` (stereo partly drawn) [Example 71, 3-(5-(4-(((R)-2-methylpiperidin-1-yl)methyl)pyridin-2-yl)-1-oxoisoindolin-2-yl)piperidine-2,6-dione] are > 10 µM, 17%, > 10 µM and 8%.
The corresponding values for `CN(Cc1ccc(F)cc1)Cc1ccnc(-c2ccc3c(c2)CN(C2CCC(=O)NC2=O)C3=O)c1` (stereo not drawn) [Example 147, 3-(5-(4-(((4-fluorobenzyl)(methyl)amino)methyl)pyridin-2-yl)-1-oxoisoindolin-2-yl)piperidine-2,6-dione] are 0.226 µM, 74%, > 10 µM and 4%.
In the case of `CC(C)(C)NCc1ccnc(-c2ccc3c(c2)CN(C2CCC(=O)NC2=O)C3=O)c1` (stereo not drawn) [Example 89, 3-(5-(4-((tert-butylamino)methyl)pyridin-2-yl)-1-oxoisoindolin-2-yl)piperidine-2,6-dione], the DC50 at Helios (setting [1]) was 0.103 µM; on Ikaros (setting [1]), > 10 µM. For the same compound, the Dmax was found to be 71% at Helios and 8% at Ikaros.
On to `CN(CC(=O)N(C)C)Cc1ccnc(-c2ccc3c(c2)CN(C2CCC(=O)NC2=O)C3=O)c1` (stereo not drawn) [Example 34, 2-(((2-(2-(2,6-dioxopiperidin-3-yl)-1-oxoisoindolin-5-yl)pyridin-4-yl)methyl)(methyl)amino)-N,N-dimethylacetamide], for which, on Helios (setting [1]), the 50% degradation concentration (DC50) was > 10 µM and the greatest degradation seen (Dmax) was 26%. On Ikaros (setting [1]), the DC50 is > 10 µM and the greatest degradation seen (Dmax) was found to be 9%.
Turning to `O=C1CCC(N2Cc3cc(-c4cc(CN5CCCCCC5)ccn4)ccc3C2=O)C(=O)N1` (stereo not drawn) [Example 48, 3-(5-(4-(azepan-1-ylmethyl)pyridin-2-yl)-1-oxoisoindolin-2-yl)piperidine-2,6-dione], the figures for the DC50 on Helios (setting [1]) and on Ikaros (setting [1]) were 0.032 µM and > 10 µM, respectively. The greatest degradation seen (Dmax) on Helios (setting [1]) worked out at 72%; at Ikaros (setting [1]) it was 6%.
The corresponding values for `CN(Cc1ccnc(-c2ccc3c(c2)CN(C2CCC(=O)NC2=O)C3=O)c1)Cc1cccc2cccnc12` (stereo not drawn) [Example 155, 3-(5-(4-((methyl(quinolin-8-ylmethyl)amino)methyl)pyridin-2-yl)-1-oxoisoindolin-2-yl)piperidine-2,6-dione] are 1.58 µM, > 10 µM, 57% and 0%.
